Where no end group is shown, it is not given here.
What was measured:
[1] = test system: membrane HSP70 on tumor-derived exosomes (B16F10, HCT116); test: BLI binding of tumor-derived exosomes to immobilized biotinylated A8, with or without cmHSP70
Method: FIG. 1: Tumor-derived exosomes in cancer patient′ samples express HSP70. (A) The binding of exosomes (10^6), derived from the B16F10, HCT116 cell lines, with or without previous incubation with cmHSP70, to immobilized biotinylated A8 was determined by biolayer interferometry. (B) Association curves of HSP70-exosomes in patients' urines (1 breast, 1 pulmonary) or healthy individuals (controls) with biotinylated A8 immobilized on streptavidin sensor tips. Curves represent mean values of triplicate measurements for each concentration. (C) Exosomes expressing HSP70 were determined by FACS in urine samples from healthy individuals (n=5) and cancer metastatic cancer patients (5 breast, 4 pulmonary). The bar graph presents the means and standard deviations of the vesicle concentrations. (D) Nanoparticle Tracking Analysis (NTA) to quantify total number of exosomes in urine human samples (urines) described above. Samples were diluted in PBS and analyzed using a NanoSight LM10 instrument. Inset values represent the total number of exosomes counted 10̂^9/ml.
Protein-protein interaction experiments were conducted at 25° C. in PBS with an Octet Red instrument (Forte Bio, Menlo Park, Calif., USA) by biolayer interferometry (BLI). […] Each KD was determined with a 1:1 stoichiometry model using a global fit with Rmax unlinked by sensor (Forte Bio, Data analysis software version 7.1.0.89). […]

[2] = test system: primary MDSC cells; test: Activation of primary MDSC by exosomes (pSTAT3, IL-6, IL-10, IFNγ in T cell co-culture); type: cell-based; details: primary MDSC from mouse spleen, exosomes from B16F10, A8 16 μM
Method: FIG. 8: A8 blocks the activation of primary MDSC cells. A) A representative image of a western blot showing the kinetics of STAT3 phosphorylation in MDSC cells incubated or not with exosomes isolated from B16F10 cells together with a peptide control (MDSC/TDE) or A8 (MDSC/TDE/A8). B-C) IL-6 (B) and IL-10 (C) concentration was determined by ELISA in the supernatant of MDSC cells incubated or not for 24 h with exosomes (from B16F10) in the absence or presence of A8 (16 μM). D) IFNγ concentration was determined by ELISA in the supernatant of co-cultured MDSC and T lymphocytes incubated or not for 5 days with exosomes (from B16F10) in the absence or presence of A8 ([…]). **, p<0.01; *, p<0.1 (n=3).
MSC2 (2·10^6) or MDSC (2·10^6) were incubated alone or with exosomes (from B16F10, CT26, HCT116, SW480) in the absence or presence of A8 or A17 (16 μM) during 6 hours (RPMI 10% FBS, 5% of CO2 at 37° C.). Every 2 hours, […] cells were sampled and centrifugated 5 min at 300 g. Cells were lysed in lysis buffer (50 mM HEPES (pH 7.6), 150 mM NaCl, 5 mM EDTA, and 0.1% NP40 and anti-phosphatases, Roche). Then, pSTAT3 and STAT3 expression were analyzed by western blotting.
Single-cell suspensions were prepared from spleens, and red cells were removed using ammonium chloride lysis buffer. […] All events were acquired by a BD Bioscience LSR-II device and analyzed with FlowJo (Tree Star). […]

[3] = Toxicity observed in treated animals; type: in vivo; details: applicant's studies and bio-distribution studies

- capture of exosomes through interaction with membrane-HSP70 ([1]; immobilized biotinylated A8, exosomes (10^6)): efficiently captured exosomes
Sequence: SPWPRPTY [Aptamer A8, SPWPRPTY]
- ability of cmHSP70 to bind to HSP70 (competition) [1]: in a dose dependent manner, decreased the ability of cmHSP70 to bind to HSP70
- MDSC activation markers (IL6 release, STAT-3 phosphorylation, IL10 release, IFNgamma release by T cells) [2]: blocks all MDSC activation markers
- toxicity in the animals, notably cardiac or hepatic [3]: neither our studies nor those done for the bio-distribution of A8 indicate any evident toxicity

From patent publication US20170131285A1, “METHODS AND COMPOSITIONS FOR DIAGNOSING, MONITORING AND TREATING CANCER” (INSERM (Institut National de la Sante et de la Recherche …, priority 2014, published 2017)
